Source: patent US10632084B2, “Aquaporin 4 function promotor and pharmaceutical composition for neurological disorders” (NIIGATA UNIVERSITY, priority 2016, dated 2020)

What was measured:
[1] = target: T1, AQP 4 (Mus musculus, UniProt P55088); assay: AQP 4 function promotion verification test using Alzheimer's disease model mice (H2 17O dynamics in brain by MRI); type: in vivo; settings: 5×FAD Alzheimer's disease model mice, 50 mg/kg orally for 3 months, MRI (FIG. 3)
T1 construct: from tissue; host or cells: brain of living B6SJL mice
Protocol: (§1) 5×FAD Alzheimer's disease model mice were bred until 4 months old. Next, the compound 1A (50 mg/kg) or the compound 2A (200 mg/kg) prepared in Production Example 1 were orally administered to the mice for 3 months. Further, a non-administration group was also prepared as the control.
With respect to the group of mice to which the compound 1A was administered and the non-administration group, images showing the dynamics of H2^17O in the brain of each mouse (cortex and CSF) at 8 second intervals were recorded until 70 seconds after the administration using MRI according to the same method as in Test Example 1. In FIG. 3, “Vehicle” indicates a non-administration group and “Compound 1A” indicates a compound 1A administration group. Further, relative values (CSF/Cortex) with respect to the cortex are also shown.

[2] = test system: senile plaques (Aβ); assay: Immunostaining of brain slices and quantification of senile plaques in Alzheimer's disease model mice; type: in vivo, mouse; settings: 5×FAD mice; for increase in senile plaques formed of Aβ 42: oral administration for 3 months (compound 1A 50 mg/kg, compound 2A 200 mg/kg), cerebral cortex (FIGS. 4A, 4B)
Protocol: as §1
Subsequently, the brain was extracted from each mouse, paraffin-embedded slices (respectively with a thickness of 4 μm) were prepared using brain tissues, and immunohistochemical staining was performed according to the following method.
First, the slices were subjected to a formic acid treatment, and overnight incubation was performed at 4° C. using Mouse monoclonal Anti-Human Amyloid J3 (Total Aj3) (10027, IBL, Japan), [2] Rabbit polyclonal Anti-Human Amyloid J31-40 (AJ340) (18580, IBL, Japan), or [3] Rabbit polyclonal Anti-Human Amyloid J31-42 (AJ342) (18582, IBL, Japan) as primary antibodies. Further, the dilution ratios of antibodies were respectively [1]×50, [2]×200, and [3]×200. After the secondary antibodies were applied, the antibodies were visualized according to a polymer method using Histofine DAB substrate kit (NICHIREI CORPORATION, JAPAN).
Next, the tissue images of the stained samples were imaged using a bright field optical microscope (Olympus Corporation, BX53, DP73), and the images were stored according to the TIFF format (2400×1800 pixels, 3.5×2.6 mm, 2.13 μm^2/pixel). Each image was analyzed in the following manner using a particle analysis function of the image analysis processing software (Aquacosmos, Hamamatsu Photonics K.K., Japan). ROI was set as the cerebral cortex, particles were extracted according to a binarization method, and the area (the number of pixels) of each extracted particle was automatically calculated and output. In output particle data, particles with an area of 10 pixels or less were removed as noise and quantified.

[3] = target: T2, human AQP 4 (hAQP 4)-M23 isoform (Homo sapiens, UniProt P55087); assay: In vitro assay of oocyte volume under hypotonic condition, Xenopus laevis oocytes expressing AQP 4; type: cell-based; settings: 20 μM compound, oocytes injected with hAQP 4-M23 mRNA, hypotonic reagent, up to 250 seconds, vs Blank (FIG. 1)
T2 construct: expressed in transfected cells; host or cells: Xenopus laevis oocytes, microinjected with hAQP4-M23 mRNA (pSP35T vector)
Protocol: A Modified Barth's Medium (MBS) was provided to contain NaCl (88 mM), KCl (1 mM), HEPES (10 mM), MgSO4 (0.82 mM), NaHCO3 (2.4 mM), CaCl2 (0.91 mM), Ca(NO3)2 (0.33 mM), and gentamicin (100 mg/L), prepared to have a pH of 7.5, and used within one week after the preparation.
Isolation, preparation, and transfection of the oocytes of a Xenopus laevis were performed using a method described in the reference (Sakimura, et al., FEBS Lett., 272, 73 to 80, 1990.). Specifically, the oocytes were extracted from a female adult of a Xenopus laevis (weight of 150 g) and transferred to an MBS. Next, the oocytes were partially transferred to an isolation buffer solution, and the theca folliculi was manually removed so that the oocytes were exposed. […]
Next, the transferred oocytes were imaged using an SZX 16 microscope (manufactured by Olympus Corporation) connected to a DP 26 digital camera (manufactured by Olympus Corporation). […] A Hypotonic reagent (1000 μL) was added, and an assay initial image (t=3 seconds) and images at 15 second intervals of were recorded up to 250 seconds after the administration. […]
Subsequently, the images were transferred to a personal computer, and the region of each oocyte was evaluated using NIH Image-J. The value of the cross-sectional area of each oocyte in a plurality of equally determined measurement times was converted into a volume assumed to be spherical. […]

[4] = target: T1, AQP 4; assay: AQP 4 function promotion verification test using mice (H2 17O dynamics in brain by MRI); type: in vivo; settings: normal male B6SJL-Tg mice, 8 weeks old, intraperitoneal administration, MRI until 70 seconds (FIG. 2B)
Protocol: Normal male B6SJL-Tg mice obtained from Jackson Laboratory were bred until 8 weeks old. Next, indomethacin as a comparative example, the compound 2A prepared in Production Example 1, and physiological saline as the control were intraperitoneally administered to respectively five mice.
Thereafter, 0.2 mL of typical physiological saline containing 20% H2^17O was administered to the right femoral vein of each mouse through the PE10 tube inserted thereinto using an automatic syringe at 0.04 mL/sec. Next, images showing the dynamics of H2^17O in the brain of each mouse ((cortex) and the cerebrospinal fluid (CSF)) at 8 second intervals were recorded until 70 seconds after the administration using magnetic resonance imaging (MRI). The results are shown in FIG. 2A (administration of indomethacin) and FIG. 2B (administration of compound 2A). FIGS. 2A and 2B show relative values (CSF/Cortex) of CSF with respect to the cortex. In FIGS. 2A and 2B, “Vehicle” indicates a non-administration control group, “Indomethacin” indicates an indomethacin administration group, and “Compound 2A” indicates a compound 2A administration group.

T1 sequence (P55088 whole entry): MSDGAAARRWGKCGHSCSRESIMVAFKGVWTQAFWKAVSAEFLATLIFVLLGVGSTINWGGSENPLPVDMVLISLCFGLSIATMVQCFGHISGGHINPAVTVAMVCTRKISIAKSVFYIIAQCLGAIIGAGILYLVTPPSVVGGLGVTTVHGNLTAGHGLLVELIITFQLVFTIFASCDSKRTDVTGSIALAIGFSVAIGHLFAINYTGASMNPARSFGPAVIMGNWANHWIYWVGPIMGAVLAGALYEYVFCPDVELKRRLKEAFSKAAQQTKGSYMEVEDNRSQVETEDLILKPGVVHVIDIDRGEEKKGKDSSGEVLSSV
T2 sequence (P55087 23-323): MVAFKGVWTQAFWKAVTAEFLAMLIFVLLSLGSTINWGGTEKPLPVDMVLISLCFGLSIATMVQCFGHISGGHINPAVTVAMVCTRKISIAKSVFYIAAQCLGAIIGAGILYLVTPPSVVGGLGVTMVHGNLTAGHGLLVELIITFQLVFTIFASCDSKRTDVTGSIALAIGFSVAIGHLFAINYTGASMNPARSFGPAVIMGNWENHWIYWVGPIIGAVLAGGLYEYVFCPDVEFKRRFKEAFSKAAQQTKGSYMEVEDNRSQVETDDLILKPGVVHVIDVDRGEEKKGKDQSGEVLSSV

AQP 4 function (H2 17O dynamics, CSF/Cortex) [1]	SMILES	increase in senile plaques (total Aβ, Aβ 40, Aβ 42 staining) ([2]; 50 mg/kg orally for 3 months, cerebral cortex (FIGS. 5A-7B))	increase in senile plaques formed of Aβ 42 [2]	volume of the oocyte [3]	numerical values of CSF/Cortex (H2 17O dynamics; water discharge, flow of cerebrospinal fluid) [4]
markedly promoted	N=C(N)NCCS(=O)(=O)O [compound 1A, 2-guanidino-1-ethanesulfonic acid]	can be suppressed	can be suppressed	–	–
–	O=S(=O)(Nc1ncccc1OCc1ccccc1)c1ccccc1 [compound 2A, 2-(phenylsulfonamido)-3-benzyloxypyridine]	–	can be suppressed	significantly increased	decreased
